These results are taken from US20100204119A1, “4-AMINO-5-OXO-7,8-DIHYDROPYRIMIDO[5,4-F][1,4]OXAZEPIN-6(5H)-YL PHENYL DERIVATIVES” (Pfizer Inc, priority 2009, published 2010).

In the assay the target is T1, Human full-length diacylglycerol:acylCoA acyltransferase 1 (DGAT-1) (Homo sapiens, UniProt O75907).
T1 sequence (O75907 1-488): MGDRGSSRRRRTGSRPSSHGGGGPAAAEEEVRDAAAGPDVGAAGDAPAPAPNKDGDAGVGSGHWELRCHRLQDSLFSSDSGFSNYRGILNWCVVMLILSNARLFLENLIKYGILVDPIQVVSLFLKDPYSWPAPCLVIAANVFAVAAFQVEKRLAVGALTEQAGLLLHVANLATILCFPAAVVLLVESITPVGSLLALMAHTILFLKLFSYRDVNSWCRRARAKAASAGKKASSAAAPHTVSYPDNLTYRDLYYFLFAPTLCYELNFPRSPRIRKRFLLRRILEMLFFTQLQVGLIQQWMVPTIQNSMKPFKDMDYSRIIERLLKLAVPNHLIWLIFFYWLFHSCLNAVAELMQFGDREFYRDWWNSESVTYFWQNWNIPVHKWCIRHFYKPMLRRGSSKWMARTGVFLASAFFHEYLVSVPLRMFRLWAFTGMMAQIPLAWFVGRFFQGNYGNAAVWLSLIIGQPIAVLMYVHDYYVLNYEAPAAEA
Kind of assay: In vitro assay for inhibition of DGAT-1 activity (DGAT 1 Reduced Microsome Multidose Assay). As to conditions: average where n > 1.

Setting [1] is: Trial 1 Human IC50, Trial 1: as Trial 4 except microsomes at 25 μg/mL instead of 5 μg/mL.
[2] abbreviates: Trial 2 Human IC50, Trial 2: as Trial 4 except eleven concentrations of inhibitor instead of eight.
[3] abbreviates: Trial 3 Human IC50, Trial 3: as Trial 2 except compounds serially diluted in a different laboratory.

Molecules are shown by their SMILES.

Procedure: Human full-length diacylglycerol:acylCoA acyltransferase 1 (DGAT-1) was expressed in Sf9 insect cells which are then lysed and a crude membrane fraction (105,000×g pellet) was prepared.
Inhibitors in DMSO were pre-incubated with membranes before initiating the DGAT-1 reaction by the addition of decanoylCoA. […] The inhibitors were present at a range of eight concentrations to generate an apparent IC50 for each compound. […] Specifically, the eight concentrations used were 3 μM, 1 μM, 300 nM, 100 nM, 30 nM, 10 nM, 3 nM and 1 nM.
The reactions were allowed to proceed for 1.5 hours at room temperature and then terminated by the addition of 20 μl of EDTA (40 mM). Reaction mixture is then mixed by trituration with 30 μl of Microscint™-E (Perkin Elmer). […] Four separate trials were conducted. The method of analysis of Trial 1 was the same as Trial 4 (described above) except microsomes were utilized at 25 μg/mL instead of 5 μg/mL. The method of analysis of Trial 2 was the same as Trial 4 (described above) except eleven (11) concentrations of inhibitor were employed instead of eight (8). The method of analysis of Trial 3 was the same as Trial 2 except the compounds were serially diluted in a different laboratory.
Where this DGAT-1 inhibition assay was performed on a compound more than once, an average is provided for that compound.

Regarding `CCCCCN(CCO)C(=O)C[C@H]1CC[C@H](c2ccc(N3CCOc4ncnc(N)c4C3=O)cc2)CC1` [Example 6V], the IC50 under setting [1] is 30.7 nM.
Under setting [1], `CN(CCc1ccccn1)C(=O)C[C@H]1CC[C@H](c2ccc(N3CCOc4ncnc(N)c4C3=O)cc2)CC1` [Example 6W] registered a half-inhibitory concentration (IC50) of 77.7 nM.
The molecule `Nc1ncnc2c1C(=O)N(c1ccc([C@H]3CC[C@H](CC(=O)N4CCCC4CO)CC3)cc1)CCO2` (stereo partly drawn) [Example 6X] returned an IC50 under setting [1] of 100 nM.
Under setting [1], `CC(=O)N1CCN(C(=O)C[C@H]2CC[C@H](c3ccc(N4CCOc5ncnc(N)c5C4=O)cc3)CC2)CC1` [Example 6Y] came in with an IC50 of 167 nM.
Still for that read-out and setting: next, `CCN(C(=O)C[C@H]1CC[C@H](c2ccc(N3CCOc4ncnc(N)c4C3=O)cc2)CC1)[C@H](C)CO` [Example 6Z]: 89.6 nM.
`Nc1ncnc2c1C(=O)N(c1ccc(C3CCN(C(=O)Cn4cccn4)CC3)cc1)CCO2` [Example 7AC] displayed an IC50 under setting [2] of 73.1 nM and a concentration for half-maximal inhibition (IC50) under setting [3] of 113 nM.
For `Nc1ncnc2c1C(=O)N(c1ccc(C3CCN(C(=O)CC4CCCC4)CC3)cc1)CCO2` [Example 7AE], the IC50 is, setting by setting: under setting [2], 41.2 nM; under setting [3], 92.3 nM.
The molecule `CC(C)(C)OC(=O)N1CCC(c2ccc(N3CCOc4ncnc(N)c4C3=O)cc2)CC1` [Example 7B] showed a half-inhibitory concentration (IC50) under setting [2] of 55.1 nM and an IC50 under setting [3] of 30 nM.
On the same counts, the results for `C[C@H](O)CC(=O)N1CCC(c2ccc(N3CCOc4ncnc(N)c4C3=O)cc2)CC1` [Example 7D] are 98.2 nM and 267 nM.
As for `Nc1ncnc2c1C(=O)N(c1ccc(C3CCN(C(=O)CC4CCCOC4)CC3)cc1)CCO2` (stereo not drawn) [Example 7E], the half-maximal inhibitory concentration (IC50) runs as follows: under setting [2], 196 nM; under setting [3], 300 nM.
As to `Cc1ocnc1C(=O)N1CCC(c2ccc(N3CCOc4ncnc(N)c4C3=O)cc2)CC1` [Example 7G], the IC50 is 88.2 nM under setting [2] and 290 nM under setting [3].
On to `Cc1ncoc1C(=O)N1CCC(c2ccc(N3CCOc4ncnc(N)c4C3=O)cc2)CC1` [Example 7K], for which the IC50 by setting is: under setting [2], 130 nM; under setting [3], 258 nM.
On the same counts, the results for `Nc1ncnc2c1C(=O)N(c1ccc(C3CCN(C(=O)CC4CCOC4)CC3)cc1)CCO2` (stereo not drawn) [Example 7M] are 114 nM and 180 nM.
On the same counts, the results for `Nc1ncnc2c1C(=O)N(c1ccc(C3CCN(C(=O)Cc4ncccn4)CC3)cc1)CCO2` [Example 7N] are 119 nM and 234 nM.
On the same counts, the results for `Nc1ncnc2c1C(=O)N(c1ccc(C3CCN(C(=O)CC4CCOCC4)CC3)cc1)CCO2` [Example 7O] are 138 nM and 374 nM.
For `Nc1ncnc2c1C(=O)N(c1ccc(C3CCN(C(=O)CC4CCCO4)CC3)cc1)CCO2` (stereo not drawn) [Example 7R], the half-maximal inhibitory concentration (IC50) worked out at 50.1 nM under setting [2] and 170 nM under setting [3].
On the same counts, the results for `CS(=O)(=O)CC(=O)N1CCC(c2ccc(N3CCOc4ncnc(N)c4C3=O)cc2)CC1` [Example 7T] are 123 nM and 217 nM.
On the same counts, the results for `CC(C)[C@H](O)C(=O)N1CCC(c2ccc(N3CCOc4ncnc(N)c4C3=O)cc2)CC1` [Example 7U] are 205 nM and 297 nM.
Turning to `Cc1cc(C(=O)N2CCC(c3ccc(N4CCOc5ncnc(N)c5C4=O)cc3)CC2)no1` [Example 7V], the IC50 is, setting by setting: under setting [2], 113 nM; under setting [3], 224 nM.
Consider `Nc1ncnc2c1C(=O)N(c1ccc(C3CCN(C(=O)C4CCCO4)CC3)cc1)CCO2` (stereo not drawn) [Example 7X], for which the IC50 is, setting by setting: under setting [2], 88.4 nM; under setting [3], 157 nM.
In the same order, the values of `Nc1ncnc2c1C(=O)N(c1ccc(C3CCN(C(=O)Cc4ccccc4)CC3)cc1)CCO2` [Example 7Y] are 45.7 nM and 98.6 nM.
As for `Nc1ncnc2c1C(=O)N(c1ccc(C3CCN(C(=O)C4CCCOC4)CC3)cc1)CCO2` (stereo not drawn) [Example 7Z], the IC50 under setting [2] was determined as 105 nM and the IC50 under setting [3] was determined as 134 nM.
